Test results published in PMC6792352, “Limited Chemical Structural Diversity Found to Modulate Thyroid Hormone Receptor in the Tox21 Chemical Library” (Environmental Health Perspectives, 2019).
Counter-ions that a name gives are not always drawn.

Assay: in vitro
Details: rat, gh3-tre-luc cells

## CCCC(C)(COC(N)=O)COC(=O)NC(C)C (centres unmarked) [Carisoprodol]
AC50 (uM) modified / 1000, Tox21_110001=Tox21_110122, viability, 1 nM T3 present, 24 h
  CC50 at 24 h: > 50 µM
AC50 (uM) modified / 1000, Tox21_110001=Tox21_200623, viability, 1 nM T3 present, 24 h
  CC50 at 24 h: > 90 µM

## CC(C)(C)C(O)/C=C/c1ccc2c(c1)OCO2 (centres unmarked) [Stiripentol]
AC50 (uM) modified / 1000
  CC50 at 24 h: > 50 µM

## CC(=O)Nc1ccc(C)cc1C [N-(2,4-Dimethylphenyl)acetamide]
AC50 (uM) modified / 1000
  CC50 at 24 h: > 90 µM

## CC(=O)CC(C)(C)C1CCCCC1 [4-Cyclohexyl-4-methyl-pentan-2-one]
AC50 (uM) modified / 1000
  CC50 at 24 h: > 90 µM

## CCO[Si](CCCCl)(OCC)OCC [(3-Chloropropyl)(triethoxy)silane]
AC50 (uM) modified / 1000
  CC50 at 24 h: > 90 µM

## CCC(CC)C(=O)O [2-Ethylbutyric acid]
AC50 (uM) modified / 1000
  CC50 at 24 h: > 90 µM

## CC(C)(C)N(NC(=O)c1ccc(Cl)cc1)C(=O)c1ccccc1 [Halofenozide]
AC50 (uM) modified / 1000
  CC50 at 24 h: 4.99 µM

## Cc1nnc(C(=O)NC(C)(C)c2nc(C(=O)NCc3ccc(F)cc3)c(O)c(=O)n2C)o1 [Raltegravir]
AC50 (uM) modified / 1000
  CC50 at 24 h: > 50 µM

## C[C@H]1C[C@H]2[C@@H]3CCC4=CC(=O)C=C[C@]4(C)[C@@]3(F)[C@@H](O)C[C@]2(C)[C@@]1(O)C(=O)CO [Betamethasone]
AC50 (uM) modified / 1000
  CC50 at 24 h: > 90 µM

## CC(=O)OC/C=C(\C)CC/C=C(\C)CCC=C(C)C [trans,trans-Farnesyl acetate]
AC50 (uM) modified / 1000
  CC50 at 24 h: > 90 µM

## O=S(=O)(O)CCCS(=O)(=O)O [Disodium propane-1,3-disulfonate]
AC50 (uM) modified / 1000
  CC50 at 24 h: > 50 µM

## CCC[N+]1(C)CCCCC1 [1-Methyl-1-propylpiperidinium bromide]
AC50 (uM) modified / 1000
  CC50 at 24 h: > 90 µM

## CC1(C)[C@H]2CC[C@]1(C)C(=O)C2 [Camphor]
AC50 (uM) modified / 1000
  CC50 at 24 h: > 90 µM

## O=C(O)CC(C(=O)O)C(CC(=O)O)C(=O)O (centres unmarked) [1,2,3,4-Butanetetracarboxylic acid]
AC50 (uM) modified / 1000
  CC50 at 24 h: > 90 µM

## CN1[C@@H]2CC[C@H]1C[C@@H](OC(=O)c1c[nH]c3ccccc13)C2 [Tropisetron]
AC50 (uM) modified / 1000
  CC50 at 24 h: 23.8 µM

## O=c1ssc(Cl)c1Cl [4,5-Dichloro-3H-1,2-dithiol-3-one]
AC50 (uM) modified / 1000
  CC50 at 24 h: 48 µM

## CC(C)(CCC(=O)O)C(=O)O [2,2-Dimethylpentanedioic acid]
AC50 (uM) modified / 1000
  CC50 at 24 h: > 90 µM

## CC(C)=CCC/C(C)=C/CC/C(C)=C/CO [Farnesol]
AC50 (uM) modified / 1000
  CC50 at 24 h: 68.1 µM

## CC(=O)OCCC(C)C [3-Methylbutyl acetate]
AC50 (uM) modified / 1000
  CC50 at 24 h: > 90 µM

## CCCCCCC1CCOC1=O (stereo not drawn) [alpha-Hexyl-gamma-butyrolactone]
AC50 (uM) modified / 1000
  CC50 at 24 h: > 90 µM

## CCC(C)=O [Methyl ethyl ketone]
AC50 (uM) modified / 1000
  CC50 at 24 h: > 90 µM

## CCCCOCCOC(=O)c1ccccc1C(=O)OCCOCCCC [Bis(2-butoxyethyl) phthalate]
AC50 (uM) modified / 1000
  CC50 at 24 h: > 90 µM

## CCCn1cc[n+](C)c1C [1,2-Dimethyl-3-propylimidazolium iodide]
AC50 (uM) modified / 1000
  CC50 at 24 h: > 90 µM

## O=C(O)c1ccc2c(c1)nc(C(=O)NC1CCN(C3CC3)CC1)n2Cc1cc(-c2ccc(Cl)s2)on1 [AVE3247]
AC50 (uM) modified / 1000
  CC50 at 24 h: > 20 µM

## COP(N)(=O)SC (centres unmarked) [Methamidophos]
AC50 (uM) modified / 1000, Tox21_110001=Tox21_202250, viability, 1 nM T3 present, 24 h
  CC50 at 24 h: > 90 µM

## NC(=O)Cc1cccc2ccccc12 [1-Naphthaleneacetamide]
AC50 (uM) modified / 1000
  CC50 at 24 h: > 90 µM

## CC1(C)C(C=C(Cl)Cl)[C@@H]1C(=O)O[C@@H](C#N)c1ccc(F)c(Oc2ccccc2)c1 (some centres unmarked) [Cyfluthrin]
AC50 (uM) modified / 1000
  CC50 at 24 h: > 90 µM

## CCn1cc(C(=O)O)c(=O)c2cnc(N3CCCC3)nc21 [Piromidic acid]
AC50 (uM) modified / 1000
  CC50 at 24 h: > 20 µM

## COC(=O)c1ccc(CBr)cc1 [Methyl 4-(bromomethyl)benzoate]
AC50 (uM) modified / 1000
  CC50 at 24 h: > 90 µM

## CCOc1cc(OCC)c(C(=O)CCC(=O)O)cc1OCC [Trepibutone]
AC50 (uM) modified / 1000
  CC50 at 24 h: > 50 µM

## CCOP(=S)(OCC)Oc1ccc(Cl)cc1Cl [Dichlofenthion]
AC50 (uM) modified / 1000, Tox21_110001=Tox21_301160, viability, 1 nM T3 present, 24 h
  CC50 at 24 h: > 90 µM

## CN[C@H]1CC[C@@H](c2ccc(Cl)c(Cl)c2)c2ccccc21 [Sertraline hydrochloride]
AC50 (uM) modified / 1000
  CC50 at 24 h: 7.85 µM

## Cc1cc(C)c(O)c(C)c1 [2,4,6-Trimethylphenol]
AC50 (uM) modified / 1000
  CC50 at 24 h: > 90 µM

## O=C(O)CBr [Bromoacetic acid]
AC50 (uM) modified / 1000, Tox21_110001=Tox21_200657, viability, 1 nM T3 present, 24 h
  CC50 at 24 h: > 90 µM

## COP(=S)(OC)Oc1c(Cl)cc(C)cc1Cl [Tolclofos-methyl]
AC50 (uM) modified / 1000, Tox21_110001=Tox21_301347, viability, 1 nM T3 present, 24 h
  CC50 at 24 h: > 90 µM

## C=C(C)CCl [3-Chloro-2-methylpropene]
AC50 (uM) modified / 1000, Tox21_110001=Tox21_201640, viability, 1 nM T3 present, 24 h
  CC50 at 24 h: > 90 µM
AC50 (uM) modified / 1000, Tox21_110001=Tox21_303609, viability, 1 nM T3 present, 24 h
  CC50 at 24 h: > 9 µM

## O=c1[nH]c(=O)c2ccccc2o1 [Carsalam]
AC50 (uM) modified / 1000
  CC50 at 24 h: > 50 µM

## FC(F)(F)C(F)(F)C(F)(F)C(F)(F)C(F)(F)F [Perflenapent]
AC50 (uM) modified / 1000
  CC50 at 24 h: > 50 µM

## O=C(c1ccc(O)cc1)c1ccc(O)cc1O [2,4,4'-Trihydroxybenzophenone]
AC50 (uM) modified / 1000
  CC50 at 24 h: > 90 µM

## CC(=O)Nc1ccc(OCCOCCOc2ccc(NC(C)=O)cc2)cc1 [Diamfenetide]
AC50 (uM) modified / 1000
  CC50 at 24 h: > 50 µM

## c1ccc2occc2c1 [2,3-Benzofuran]
AC50 (uM) modified / 1000
  CC50 at 24 h: > 90 µM

## CCCCNC(=O)n1c(NC(=O)OC)nc2ccccc21 [Benomyl]
AC50 (uM) modified / 1000
  CC50 at 24 h: > 90 µM

## CCCCOC(=O)C(C)O (centres unmarked) [Butyl lactate]
AC50 (uM) modified / 1000
  CC50 at 24 h: > 90 µM

## CCn1nc(Cc2ccccc2)cc1C1CCN(C[C@H]2C[C@H](N(C)[C@@H](C(=O)O)C(C)C)C[C@@H]2c2cccc(F)c2)CC1 [MK-578]
AC50 (uM) modified / 1000
  CC50 at 24 h: 66.4 µM

## O=C(Oc1ccccc1)Oc1ccccc1 [Diphenylcarbonate]
AC50 (uM) modified / 1000
  CC50 at 24 h: > 90 µM

## CCCCCCCCCl [1-Chlorooctane]
AC50 (uM) modified / 1000, Tox21_110001=Tox21_201715, viability, 1 nM T3 present, 24 h
  CC50 at 24 h: > 90 µM

## Brc1c2ccccc2c(Br)c2ccccc12 [9,10-Dibromoanthracene]
AC50 (uM) modified / 1000
  CC50 at 24 h: > 5 µM

## CCCCCCCCCCCCNC(=N)N [Dodine]
AC50 (uM) modified / 1000
  CC50 at 24 h: > 4 µM

## OCCCCO [1,4-Butanediol]
AC50 (uM) modified / 1000, Tox21_110001=Tox21_202245, viability, 1 nM T3 present, 24 h
  CC50 at 24 h: > 90 µM

## C(COCC1CO1)OCC1CO1 (centres unmarked) [Ethylene glycol diglycidyl ether]
AC50 (uM) modified / 1000
  CC50 at 24 h: > 90 µM

## Nc1nc2c(ncn2COCCO)c(=O)[nH]1 [Acyclovir]
AC50 (uM) modified / 1000
  CC50 at 24 h: > 20 µM

## c1ccc(P(c2ccccc2)c2ccccc2)cc1 [Triphenylphosphine]
AC50 (uM) modified / 1000
  CC50 at 24 h: > 90 µM

## Oc1cc(O)cc(O)c1 [1,3,5-Trihydroxybenzene dihydrate]
AC50 (uM) modified / 1000
  CC50 at 24 h: > 50 µM

## O=NN1CCCC1 [N-Nitrosopyrrolidine]
AC50 (uM) modified / 1000, Tox21_110001=Tox21_202356, viability, 1 nM T3 present, 24 h
  CC50 at 24 h: > 100 µM
AC50 (uM) modified / 1000, Tox21_110001=Tox21_302913, viability, 1 nM T3 present, 24 h
  CC50 at 24 h: > 90 µM

## O=C1NCCN1c1ncc([N+](=O)[O-])s1 [Niridazole]
AC50 (uM) modified / 1000
  CC50 at 24 h: > 20 µM

## O=C(O)CC(=O)C(=O)O [2-Oxobutanedioic acid]
AC50 (uM) modified / 1000
  CC50 at 24 h: > 90 µM

## CCN(CC)Cc1nccn1-c1ccc([N+](=O)[O-])cc1C(=O)c1ccccc1Cl [Nizofenone]
AC50 (uM) modified / 1000
  CC50 at 24 h: > 50 µM

## c1ccc2c(c1)-c1cccc3cccc-2c13 [Fluoranthene]
AC50 (uM) modified / 1000
  CC50 at 24 h: > 90 µM

## C/N=C(\NC)NCc1ccccc1 [Bethanidine sulfate (2:1)]
AC50 (uM) modified / 1000
  CC50 at 24 h: > 50 µM

## Clc1sc(Cl)c(Cl)c1Cl [Tetrachlorothiophene]
AC50 (uM) modified / 1000
  CC50 at 24 h: > 90 µM

## CCCC(C)CC (centres unmarked) [3-Methylhexane]
AC50 (uM) modified / 1000
  CC50 at 24 h: > 90 µM

## CO[C@H]1[C@@H](O)C[C@H](O[C@H]2[C@@H](O)C[C@H](O[C@H]3[C@@H](O)C[C@H](O[C@H]4CC[C@@]5(C)[C@H](CC[C@@H]6[C@@H]5C[C@@H](O)[C@]5(C)[C@@H](C7=CC(=O)OC7)CC[C@]65O)C4)O[C@@H]3C)O[C@@H]2C)O[C@@H]1C [Methyldigoxin]
AC50 (uM) modified / 1000
  CC50 at 24 h: > 50 µM

## CCCCNc1ccccc1 [N-Butylaniline]
AC50 (uM) modified / 1000
  CC50 at 24 h: > 90 µM

## CN(C)CCC#N [3-Dimethylaminopropionitrile]
AC50 (uM) modified / 1000
  CC50 at 24 h: > 90 µM

## C=CC(=O)OCCn1c(=O)n(CCOC(=O)C=C)c(=O)n(CCOC(=O)C=C)c1=O [(2,4,6-Trioxo-1,3,5-triazinane-1,3,5-triyl)triethane-2,1-diyl trisprop-2-enoate]
AC50 (uM) modified / 1000
  CC50 at 24 h: 4.99 µM

## CCCCCCCCBr [1-Bromooctane]
AC50 (uM) modified / 1000
  CC50 at 24 h: > 90 µM

## Cc1cc(OC(=O)N(C)C)nn1C(=O)N(C)C [Dimetilan]
AC50 (uM) modified / 1000, Tox21_110001=Tox21_301855, viability, 1 nM T3 present, 24 h
  CC50 at 24 h: > 90 µM

## CSc1ccc(/C=C2/C(C)=C(CC(=O)O)c3cc(F)ccc32)cc1 [Sulindac sulfide]
AC50 (uM) modified / 1000
  CC50 at 24 h: > 50 µM

## OCCO [Ethylene glycol]
AC50 (uM) modified / 1000
  CC50 at 24 h: > 100 µM

## O=C(O)c1cccc([N+](=O)[O-])c1 [3-Nitrobenzoic acid]
AC50 (uM) modified / 1000
  CC50 at 24 h: > 90 µM

## CC(C)C#N [2-Methylpropanenitrile]
AC50 (uM) modified / 1000, Tox21_110001=Tox21_201929, viability, 1 nM T3 present, 24 h
  CC50 at 24 h: > 90 µM
